Test results as given in patent publication US20100197727A1, “Quinoline Derivatives as Antibacterial Agents” (priority 2005, published 2010).

Assays:
Test in all cases: Microtitre plate assay, IC90 determination
Type in all cases: cell-based
Details in all cases: 90% inhibitory concentration for bacterial growth
[1] = tested on: Bacillus subtilis (ATCC43639)
Protocol: (§1) The bacteria used in this study were grown overnight in flasks containing 100 ml Mueller-Hinton Broth (Becton Dickinson—cat. no. 275730) in sterile de-ionized water, with shaking, at 37° C. Stocks (0.5 ml/tube) were stored at −70° C. until use. Bacteria titrations were performed in microtiter plates and colony forming units (CFUs) were determined In general, an inoculum level of approximately 100 CFUs was used for susceptibility testing.
(§2) Flat-bottom, sterile 96-well plastic microtiter plates were filled with 180 μl of sterile deionized water, supplemented with 0.25% BSA. Subsequently, stock solutions (7.8× final test concentration) of compounds were added in 45 μl volumes in column 2. Serial five-fold dilutions (45 μl in 180 μl ) were made directly in the microtiter plates from column 2 to reach column 11. Untreated control samples with (column 1) and without (column 12) inoculum were included in each microtiter plate. Depending on the bacteria type, approximately 10 to 60 CFU per well of bacteria inoculum (100 TCID50), in a volume of 100 μl in 2.8× Mueller-Hinton broth medium, was added to the rows A to H, except column 12. The same volume of broth medium without inoculum was added to column 12 in row A to H. The cultures were incubated at 37° C. for 24 hours under a normal atmosphere (incubator with open air valve and continuous ventilation). At the end of incubation, one day after inoculation, the bacterial growth was quantitated fluorometrically. Therefore resazurin (0.6 mg/ml) was added in a volume of 20 μl to all wells 3 hours after inoculation, and the plates were re-incubated overnight. A change in colour from blue to pink indicated the growth of bacteria. The fluorescence was read in a computer-controlled fluorometer (Cytofluor Biosearch) at an excitation wavelength of 530 nm and an emission wavelength of 590 nm. The % growth inhibition achieved by the compounds was calculated according to standard methods. The IC90 (expressed in μg/ml) was defined as the 90% inhibitory concentration for bacterial growth.

[2] = tested on: Enterococcus faecalis (ATCC14506)
Protocol: as §1, §2

[3] = tested on: Enterococcus faecalis (ATCC29212)
Protocol: as §1, §2

[4] = tested on: Listeria monocytogenes (ATCC49594)
Protocol: as §1, §2

[5] = tested on: Staphylococcus aureus (ATCC25923)
Protocol: as §1, §2

[6] = tested on: Staphylococcus aureus (ATCC29213)
Protocol: as §1, §2

[7] = tested on: Staphylococcus aureus (ATCC43300)
Protocol: as §1, §2

[8] = tested on: Streptococcus mutans (ATCC33402)
Protocol: as §1, §2

[9] = tested on: Streptococcus pneumoniae (ATCC6305)
Protocol: as §1, §2

[10] = tested on: Streptococcus pyogens (ATCC8668)
Protocol: as §1, §2

[11] = tested on: methicilline resistant Staphylococcus aureus (MRSA) (a clinical isolate from the University of Antwerp)
Protocol: as §1, §2

[12] = tested on: Escherichia coli (ATCC35218)
Protocol: as §1, §2

[13] = tested on: Pseudomonas aeruginosa (ATCC27853)
Protocol: as §1, §2

[14] = tested on: Escherichia coli (ATCC25922)
Protocol: as §1, §2

| Compound | IC90 EFA 29212 [3] [µg/mL] | IC90 STA 29213 [6] [µg/mL] | IC90 SPN 6305 [9] [µg/mL] | IC90 SPY 8668 [10] [µg/mL] | IC90 PAE 27853 [13] [µg/mL] | further results |
| --- | --- | --- | --- | --- | --- | --- |
| COc1nc2ccc(Br)cc2cc1C(c1ccccc1)C(O)(CC[N+](C)(C)C)c1ccccc1.[I-] (single isomer, unassigned) [Compound 57] | 12.9 | 12.9 | 16.3 | 12.9 | – | IC90 BSU 43639 [1]: 2.6 µg/mL; IC90 EFA 14506 [2]: 12.9 µg/mL; IC90 LMO 49594 [4]: 2.6 µg/mL; IC90 STA 25923 [5]: 12.9 µg/mL; IC90 STA 43300 [7]: 12.9 µg/mL; IC90 SMU 33402 [8]: 12.9 µg/mL; IC90 STA RMETH [11]: 12.9 µg/mL |
| COc1nc2ccc(Br)cc2cc1C(c1ccccc1)C(O)(CCc1ccccc1)CC[N+](C)(C)C.[I-] (single isomer, unassigned) [Compound F] | – | 2.1 | – | – | – | – |
| COc1nc2ccc(Br)cc2cc1C(c1ccccc1)C(O)(CCCC[N+](C)(C)C)c1ccccc1.[I-] (single isomer, unassigned) [J] | – | 2.1 | – | – | – | – |
| CSc1nc2ccc(Br)cc2cc1C(c1ccccc1)C(O)(CCCC[N+](C)(C)C)c1ccccc1.[I-] (single isomer, unassigned) [Compound L] | 2.2 | 2.2 | 2.2 | 0.4 | 2.2 | IC90 BSU 43639 [1]: 2.2 µg/mL; IC90 ECO 35218 [12]: 11 µg/mL; IC90 LMO 49594 [4]: 2.2 µg/mL; IC90 SMU 33402 [8]: 0.4 µg/mL |
| COc1nc2ccc(Br)cc2cc1C(c1ccc(Cl)cc1)C(O)(CC[N+](C)(C)C)c1ccccc1.[I-] (single isomer, unassigned) [Compound N] | 1.75 | 1.8 | 1.75 | 1.75 | 9.87 | IC90 ECO 35218 [12]: 17.55 µg/mL |
| COc1nc2ccc(Br)cc2cc1C(c1ccccc1)C(O)(CCC[N+](C)(C)C)c1cccc2ccccc12.[I-] (single isomer, unassigned) [Compound G] | – | 0.4 | – | – | – | – |
| COc1nc2ccc(Br)cc2cc1C(c1ccccc1)C(O)(CCCC[N+](C)(C)C)c1ccccc1.[I-] (single isomer, unassigned) [Compound K] | – | 2.1 | – | – | – | – |
| COc1nc2ccc(Br)cc2cc1C(c1ccccc1)C(O)(CC[N+](C)(C)C)c1ccccc1.[I-] (single isomer, unassigned) [Compound 10] | 5.8 | 14.5 | 16.3 | 1.3 | – | IC90 BSU 43639 [1]: 10.3 µg/mL; IC90 EFA 14506 [2]: 12.9 µg/mL; IC90 LMO 49594 [4]: 1.2 µg/mL; IC90 STA 25923 [5]: 11.5 µg/mL; IC90 STA 43300 [7]: 5.8 µg/mL; IC90 SMU 33402 [8]: 10.3 µg/mL; IC90 STA RMETH [11]: 8.2 µg/mL |
| COc1nc2ccc(Br)cc2cc1C(c1ccccc1)C(O)(CC[N+](C)(C)C)c1cccc(F)c1.[I-] (single isomer, unassigned) [Compound O] | 8.53 | 1.9 | 1.7 | 1.7 | – | – |
| COc1nc2ccc(Br)cc2cc1C(c1ccccc1)C(O)(CC[N+](C)(C)C)c1ccsc1.[I-] (single isomer, unassigned) [Compound M] | – | 1.7 | 8.34 | 8.34 | – | – |
| COc1nc2ccc(Br)cc2cc1C(c1ccccc1)C(O)(CCC[N+](C)(C)C)c1ccc2ccccc2c1.[I-] (single isomer, unassigned) [Compound S] | 1.85 | 0.4 | 0.47 | 1.85 | 1.85 | – |
| COc1nc2ccc(Br)cc2cc1C(c1ccccc1)C(O)(CC[N+](C)(C)C)c1ccc2ccccc2c1.[I-] (single isomer, unassigned) [Compound Q] | 1.8 | 1.8 | 1.8 | 1.8 | 4.53 | – |
| CSc1nc2ccc(Br)cc2cc1C(c1ccccc1)C(O)(CC[N+](C)(C)C)c1ccccc1.[I-] (single isomer, unassigned) [Compound T] | 3.8 | 1.7 | 1.7 | 1.7 | 8.5 | – |
| COc1nc2ccc(Br)cc2cc1C(c1ccccc1)C(O)(CCC[N+](C)(C)C)c1ccc2ccccc2c1.[I-] (single isomer, unassigned) [R] | 1.17 | 0.4 | 0.46 | 0.74 | 2.07 | IC90 ECO 35218 [12]: 9.27 µg/mL |
| COc1nc2ccc(Br)cc2cc1C(c1ccccc1)C(O)(CCCC[N+]1(C)CCCCC1)c1ccccc1.[I-] (single isomer, unassigned) [Compound U] | 1.86 | 1.9 | 2.09 | 1.86 | 9.33 | – |
| CCCC[N+](C)(C)CCC(O)(c1cccc2ccccc12)C(c1ccccc1)c1cc2cc(Br)ccc2nc1OC.[I-] (single isomer, unassigned) [Compound C] | – | 0.4 | – | – | – | – |
| COc1nc2ccc(Br)cc2cc1C(c1ccccc1)C(O)(CCCC[N+](C)(C)C)c1ccc2ccccc2c1.[I-] (single isomer, unassigned) [Compound H] | – | 0.5 | – | – | – | – |
| COc1nc2ccc(Br)cc2cc1C(c1ccccc1)C(O)(CCc1ccccc1)CC[N+](C)(C)C.[I-] (single isomer, unassigned) [E] | – | 2.1 | – | – | – | – |
| COc1nc2ccc(Br)cc2cc1C(c1ccccc1)C(O)(CC[N+](C)(C)C)c1cccc2ccccc12.[I-] (single isomer, unassigned) [Compound 121] | 2.8 | 0.4 | 3.5 | 3.5 | 13.9 | IC90 BSU 43639 [1]: 2.8 µg/mL; IC90 EFA 14506 [2]: 2.8 µg/mL; IC90 ECO 25922 [14]: 12.4 µg/mL; IC90 LMO 49594 [4]: 0.5 µg/mL; IC90 STA 25923 [5]: 2.2 µg/mL; IC90 STA 43300 [7]: 3.5 µg/mL; IC90 SMU 33402 [8]: 2.8 µg/mL; IC90 STA RMETH [11]: 2.2 µg/mL |
| COc1nc2ccc(Br)cc2cc1C(c1ccccc1)C(O)(CCCC[N+](C)(C)C)c1ccc2ccccc2c1.[I-] (single isomer, unassigned) [I] | – | 2.9 | – | – | – | – |
